Reference: patent US20250134953A1, “COMPOSITIONS FOR TREATING AUTOIMMUNE ARTHRITIS” (DEVINTEC SAGL, priority 2021, published 2025)

Columns and labels:
[1] = tested on: IL-17, IL-6, IL-23, TNF-α and IL-1β; conditions: CAIA mice; prednisolone at high doses (group 14); combination groups 13 and 15; FIGS. 1-2
Method: The mAb cocktail contained three mAb (F10, A2, D8) of type IgG2a and one mAb (D1) of type IgG2b in equal amounts, directed to bovine CII (Arthrogen-CIA, Chondrex) suspended in sterile PBS. All WT mice received intraperitnoeal i.p. injections of 8 mg/mouse of Arthrogen on day 0 and 50 ug/mouse of LPS from E. coli strain 0111B4 (Sigma, T 3382) on day 3 to synchronize the development of arthritis. All mice started to develop arthritis at day 4 and were sacrificed at day 14.
Animals from group A and B were separated in some the following subgroups, depending on the assay, and administered with the indicated compounds or combination of compounds: • 1. Sham+vehicle (negative control) (n=3) • 2. Sham+prednisolone 0.05 mg/kg (n=3) • 3. Sham+prednisolone 0.05 mg/kg +MD (50 mg acacia gum (AG) +70 mg pea protein (PP)+50 mg alpha-GOS) (n=3) • 4. Sham+prednisolone 0.2 mg/kg (n=3) • 5. Sham+prednisolone 0.2 mg/kg+MD (50 mg AG+70 mg PP+50 mg alpha-GOS) (n=3) • 6. Sham+prednisolone 1 mg/kg (n=3) • 7. Sham+prednisolone 1 mg/kg+MD (50 mg AG+70 mg PP+50 mg alpha-GOS) (n=3) • 8. Sham+MD (n=3) • 9. CAIA+vehicle (positive control) (n=6) • 10. CAIA+prednisolone 0.05 mg/kg (n=6) • 11. CAIA+prednisolone 0.05 mg/kg+MD (50 mg AG+70 mg PP+50 mg alpha-GOS) (n=6) • 12. CAIA+prednisolone 0.2 mg/kg (n=6) • 13. CAIA+prednisolone 0.2 mg/kg (n=6)+MD (50 mg AG+70 mg PP+50 mg alpha-GOS) (n=6) • 14. […]

[2] = tested on: collagen antibody-induced arthritis (CAIA) mice; test: Radiological score (X-ray) of ankle joints in CAIA mice; assay type: in vivo, Male BALB/c mice; conditions: oral gavage, score 0-3
Method: (§1) Each compound (140 mg of pea protein; 100 mg of Acacia gum; and 100 mg of alpha-Glucooligosaccharide) were administered in a PBS solution via oral gavage daily, from day 0 to day 14 in mice of Group A, and from day 4 to day 14 in mice of Group B. Prednisolone was administered via oral gavage at the doses of 0.05, 0.2 and 1 mg/kg as disclosed in Oosten, L., Helsen, M., Saxne, T. et al. “Synergistic protection against cartilage destruction by low dose prednisolone and interleukin-10 in established murine collagen arthritis”. Inflamm. Res. 48, 48-55, 1999.
(§2) The animals were divided into the following two groups: • Group A: the animals were administered with the therapeutic compounds from day 0 to day 14. • Group B: the animals were administered with the therapeutic compounds from day 4 to day 14.
(§3) Sham+vehicle (negative control) (n=3) • 2. Sham+prednisolone 0.05 mg/kg (n=3) • 3. […] Sham+prednisolone 0.2 mg/kg (n=3) • 5. […] Sham+prednisolone 1 mg/kg (n=3) • 7. […] Sham+MD (n=3) • 9. CAIA+vehicle (positive control) (n=6) • 10. CAIA+prednisolone 0.05 mg/kg (n=6) • 11. […] CAIA+prednisolone 0.2 mg/kg (n=6) • 13. […] CAIA+prednisolone 1 mg/kg (n=6) • 15. […] CAIA+140 mg Pea Protein (n=6) • 18. […] CAIA+200 mg Pea Protein (n=6) • 20. […] CAIA+70 mg Pea Protein (n=6)
Radiological analysis was carried out using X-ray technique, and radio-logical scoring (level: 0=Normal; 1=Slight; 2=Moderate and 3=Severe) was calculated considering different parameters such as periosteal reaction/hypertrophy, bone erosion, soft tissue swelling, narrowed joint space and osteoporosis in the ankle-joints, as described in Balkrishna A, et al., “Herbo-mineral formulation ‘Ashwashila’ attenuates rheumatoid arthritis symptoms in collagen-antibody-induced arthritis (CAIA) mice model” Sci Rep., 2019; vol. 9(1); pp. 8025.

[3] = tested on: collagen antibody-induced arthritis (CAIA) mice; test: Histological score of ankle joints (hind legs) in CAIA mice; assay type: in vivo, Male BALB/c mice; conditions: oral gavage
Method: as §1, §2, §3
Histological analysis was carried out as previously described (Balkrishna A, et al., supra; Mengdi et al., “A novel dexamethasone-loaded liposome alleviates rheumatoid arthritis in rats”; International Journal of Pharmaceutics; 2018; vol. 540(1-2); pp. 57-64) and indicating score analysis of the RA disease-associated lesions such as the moderately enlarged synovial membrane, hyperplastic synovium, the presence of inflammation and bone and cartilage erosion on a 0-4 scale as follows: 0=normal; 1=mild, slight swelling; 2=moderate swelling; 3=severe swelling; 4=maximally inflamed; […].
Histopathological analysis of the CAIA mice hind legs was performed following fourteen days of treatment. Ankle-joints analysis of the CAIA mice was performed indicating the development of arthritis disease-associated lesions such as the moderately enlarged synovial membrane, hyperplastic synovium, increased synovial vascularity, the presence of inflammation and, bone and cartilage erosion.

[4] = group A (dosed day 0 to day 14), subgroup 10A: prednisolone 0.05 mg/kg
[5] = group A (dosed day 0 to day 14), subgroup 12A: prednisolone 0.2 mg/kg
[6] = group A (dosed day 0 to day 14), subgroup 14A: prednisolone 1 mg/kg
[7] = group B (dosed day 4 to day 14), subgroup 10B: prednisolone 0.05 mg/kg
[8] = group B (dosed day 4 to day 14), subgroup 12B: prednisolone 0.2 mg/kg
[9] = group B (dosed day 4 to day 14), subgroup 14B: prednisolone 1 mg/kg

## C[C@]12C=CC(=O)C=C1CC[C@@H]1[C@@H]2[C@@H](O)C[C@@]2(C)[C@H]1CC[C@]2(O)C(=O)CO [prednisolone]
[1]
  cytokine levels (IL-17, IL-6, IL-23, TNF-α and IL-1β) in arthritic hind paws: significantly reduced the expressions of the aforementioned cytokines
[2]; [4]
  Radiological score, MEAN: 2.3
[2]; [5]
  Radiological score, MEAN: 1.8
[2]; [6]
  Radiological score, MEAN: 1.7
[2]; [7]
  Radiological score, MEAN: 2.6
[2]; [8]
  Radiological score, MEAN: 1.9
[2]; [9]
  Radiological score, MEAN: 1.8
[3]; [4]
  Histological score, MEAN: 1.8
[3]; [5]
  Histological score, MEAN: 1.3
[3]; [6]
  Histological score, MEAN: 1.1
[3]; [7]
  Histological score, MEAN: 2.4
[3]; [8]
  Histological score, MEAN: 1.8
[3]; [9]
  Histological score, MEAN: 1.9
